Experimental data reported in patent publication EP4741401A1, “BENZOTHIAZOIMIDAZOLYL COMPOUND AND USE THEREOF” (ER Stress Research Institute, Inc., priority 2023, dated 2025).

What was measured:
[1] = tested on: cell growth inhibition by endoplasmic reticulum stress; conditions: from WO2019/131656A; read-out: 50% inhibitory concentration for cell growth inhibition by endoplasmic reticulum stress; cited from earlier work
293A cells = assay: Cytoprotection under endoplasmic reticulum stress conditions (Tm-induced cell death); format: cell-based; conditions: compound concentration inhibiting Tm-induced cell death by 50%, Tm 0.2 µg/mL, reporter cells
Protocol: The reporter cells same as those used in Example 1 were placed in each well of a 96-well assay plate and were treated with Tm at a final concentration of 0.2 µg/mL and the test compound. […]

[2] = tested on: endoplasmic reticulum stress response induced by Tm; assay: Suppression of endoplasmic reticulum stress response (ERSE2-UPRE-AARE-EGFP reporter fluorescence); format: cell-based; conditions: 293A reporter cells, incubated at 37°C overnight, read-out: Suppression rank of endoplasmic reticulum stress response
Protocol: A solution of the compound synthesized in "(1) Synthesis of benzothiazoimidazolyl compound" was appropriately diluted with a DMEM solution containing 10% fetal bovine serum (FBS), and the diluted solution was added to a 384-well assay plate at 10 µL/well. Next, 30 µL of a culture medium containing the reporter cells and 10 µL of the Tm solution were mixed, and the mixture was added to the 384-well assay plate at 40 µL/well such that the cell density was 18 × 10^3 cells/well, and the whole was incubated at 37°C overnight.
A multi-plate reader Citation 3 (Bio-Tek) was used to determine the EGFP fluorescence intensity (excitation wavelength: 485 nm, fluorescence wavelength: 528 nm) when the test compound was added. A smaller fluorescence intensity indicates more suppression of the increase in activity of the endoplasmic reticulum stress marker induced by Tm.
A "control" containing the Tm solution and, in place of the test compound solution, an equal volume of DMSO was subjected to the measurement of fluorescence intensity in a similar manner. In addition, a "background" containing a solution prepared in the same manner as for the Tm solution except that no Tm was added and containing, in place of the test compound solution, an equal volume of DMSO was subjected to the measurement of fluorescence intensity in a similar manner.
The fluorescence intensity was determined while the concentration of the test compound was varied, and the 50% effective concentration (IC50) of suppressing the endoplasmic reticulum stress response induced by Tm was calculated.

[3] = tested on: Familial neurogenic diabetes insipidus model mice; assay: Suppression of urine output increase in FNDI model mice; format: in vivo; conditions: oral, 30 mg/kg/day or 100 mg/kg/day, once daily for 28 days
Protocol: Familial neurogenic diabetes insipidus model mice created by Arima et al. at Nagoya University and carrying a knock-in mutation (Cys98stop) in the neurophysin II gene that causes familial neurogenic diabetes insipidus (FNDI) in humans (Am J Physiol Regul Integr Comp Physiol 2009 296:R1641-9) were divided into two groups. To each group, an IBT-30-containing preparation was forcibly administered orally such that the dosage of IBT-30 was 30 mg/kg/day or 100 mg/kg/day (n=6). The IBT-30-containing preparation was prepared as a suspension of IBT-30 at a final concentration of 0.5% by weight in carboxymethyl cellulose. The oral administration was performed once daily via a feeding tube for 28 days. The urine output was measured daily throughout the 28 days when IBT-30 was administered.

[4] = tested on: endogenous molecular chaperones; assay: Induction of endogenous molecular chaperones in cells; format: cell-based; conditions: applied to cells
FNDI model mice = assay: Number of mutant protein aggregates (inclusion bodies) in vasopressin neurons of brain tissue; format: in vivo; conditions: oral, 100 mg/kg/day, once daily for 28 days, inclusion bodies of 4.5 µm or more in vasopressin neurons
Protocol: To FNDI model mice, the above IBT-30-containing preparation was forcibly administered orally once daily for 28 days such that the dosage of IBT-30 was 100 mg/kg/day (n=6). In a similar manner, a vehicle preparation free from IBT-30 was forcibly administered orally (n=6). […]

IC50 [2]	Structure (SMILES)	IC50 [1]	IC50 (293A cells)	urine output [3]	induction of endogenous molecular chaperones [4]	number of inclusion bodies (mutant protein aggregates) (FNDI model mice)
≤ 0.01 µM	COc1cc(-c2cn3c(n2)sc2cc(S(C)(=O)=O)ccc23)ccc1C(F)(F)F [IBT-30, 2-(3-Methoxy-4-(trifluoromethyl)phenyl)-7-(methylsulfonyl)benzo[d]imidazo[2,1-b]thiazole]		0.004 µM	decreases in a dose-dependent manner	not induced	significantly reduced
0.01 to 0.1 µM	CNC(=O)CCc1ccc2c(c1)sc1nc(-c3ccc(Cl)cc3)cn12 [IBT-35, 3-(2-(4-chlorophenyl)benzo[d]imidazo[2,1-b]thiazol-7-yl)-N-methylpropanamide]		0.04 µM			
> 1 µM	COc1cccc2sc3nc(-c4ccc(Cl)cc4)cn3c12 [IBT-51, 2-(4-chlorophenyl)-5-methoxybenzo[d]imidazo[2,1-b]thiazole]		7.72 µM			

Second part, the compound before the results:

Structure (SMILES)	IC50 [2]	IC50 [1]	IC50 (293A cells)	urine output [3]	induction of endogenous molecular chaperones [4]	number of inclusion bodies (mutant protein aggregates) (FNDI model mice)
CCCC(=O)NCCc1csc(-c2ccc(Cl)cc2)n1 [azoramide]		86 µM				
C[C@H](CCC(=O)NCCS(=O)(=O)O)[C@H]1CC[C@H]2[C@@H]3[C@@H](O)C[C@@H]4C[C@H](O)CC[C@]4(C)[C@H]3CC[C@]12C [TUDCA, tauroursodeoxycholic acid, reference compound]		2100 µM	20 µM			
O=C(O)CCCc1ccccc1 [Compound 4-PBA, 4-phenylbutyric acid, reference compound]		5400 µM	4000 µM			
CS(=O)(=O)c1ccc2c(c1)sc1nc(-c3ccccc3)cn12 [IBT-21, reference compound]	0.1 to 1 µM	0.61 µM	0.61 µM			
